Measurements taken from ChEMBL document CHEMBL1201862, “PubChem BioAssay data set” (2004).
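Tested at 5 concentrations; 48 h exposure; 96-well plates; endpoints linearly interpolated, else capped at highest concentration. The concentration for 50% growth inhibition is given as GI50.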 Calls of active or inactive are those of the source. No stated cut-off is given here; in the data, active = GI50 up to about 1.1 µM and inactive = higher.

Experiments:
Test in all cases: growth of human tumour cells (NCI), 48 h
786-0 = system: 786-0
A498 = system: A498
A549 = system: A549
ACHN = system: ACHN
CAKI-1 = system: CAKI-1
CCRF-CEM = system: CCRF-CEM
COLO 205 = system: COLO 205
DLD-1 = system: DLD-1
DMS-114 = system: DMS-114
DMS-273 = system: DMS-273
EKVX = system: EKVX
HCC 2998 = system: HCC 2998
HCT-15 = system: HCT-15
HL-60 = system: HL-60
HOP-18 = system: HOP-18
HOP-62 = system: HOP-62
HOP-92 = system: HOP-92
HT-29 = system: HT-29
IGROV-1 = system: IGROV-1
K562 = system: K562
KM-20L2 = system: KM-20L2
KM12 = system: KM12
LOX IMVI = system: LOX IMVI
LXFL 529 = system: LXFL 529
M14 = system: M14
M19-MEL = system: M19-MEL
MOLT-4 = system: MOLT-4
Malme-3M = system: Malme-3M
NCI-H226 = system: NCI-H226
NCI-H23 = system: NCI-H23
NCI-H460 = system: NCI-H460
NCI-H522 = system: NCI-H522
OVCAR-3 = system: OVCAR-3
OVCAR-4 = system: OVCAR-4
OVCAR-5 = system: OVCAR-5
OVCAR-8 = system: OVCAR-8
RPMI-8226 = system: RPMI-8226
RXF 393 = system: RXF 393
SF-268 = system: SF-268
SF-295 = system: SF-295
SF-539 = system: SF-539
SK-MEL-28 = system: SK-MEL-28
SK-MEL-2 = system: SK-MEL-2
SK-MEL-5 = system: SK-MEL-5
SK-OV-3 = system: SK-OV-3
SN12C = system: SN12C
SNB-19 = system: SNB-19
SNB-75 = system: SNB-75
SR = system: SR
SW-620 = system: SW-620
TK-10 = system: TK-10
U-251 = system: U-251
UACC-257 = system: UACC-257
UACC-62 = system: UACC-62
UO-31 = system: UO-31
XF498 = system: XF498
BT-549 = system: BT-549
DU-145 = system: DU-145
HCT-116 = system: HCT-116
Hs-578T = system: Hs-578T
MCF7 = system: MCF7
MDA-MB-231 = system: MDA-MB-231
MDA-MB-435 = system: MDA-MB-435
MDA-N = system: MDA-N
NCI/ADR-RES = system: NCI/ADR-RES
PC-3 = system: PC-3
SNB-78 = system: SNB-78
T47D = system: T47D

CCCCOC(=O)C1C(c2ccc(Cl)cc2)NC(c2ccc(Cl)cc2)C(C(=O)OCCCC)S1(=O)=O (stereo unspecified)
GI50 (786-0): > 100 µM (inactive) | GI50 (A498): > 100 µM (inactive) | GI50 (A549): > 100 µM (inactive) | GI50 (ACHN): > 100 µM (inactive) | GI50 (CAKI-1): > 100 µM (inactive) | GI50 (CCRF-CEM): > 100 µM (inactive) | GI50 (COLO 205): > 100 µM (inactive) | GI50 (DLD-1): > 100 µM (inactive) | GI50 (DMS-114): > 100 µM (inactive) | GI50 (DMS-273): > 100 µM (inactive) | GI50 (EKVX): > 100 µM (inactive) | GI50 (HCC 2998): > 100 µM (inactive) | GI50 (HCT-15): > 100 µM | GI50 (HL-60): 8.83 µM (inactive) | GI50 (HOP-18): > 100 µM (inactive) | GI50 (HOP-62): > 100 µM (inactive) | GI50 (HOP-92): > 100 µM (inactive) | GI50 (HT-29): > 100 µM (inactive) | GI50 (IGROV-1): > 100 µM (inactive) | GI50 (K562): > 100 µM (inactive) | GI50 (KM-20L2): > 100 µM (inactive) | GI50 (KM12): > 100 µM (inactive) | GI50 (LOX IMVI): > 100 µM (inactive) | GI50 (LXFL 529): 69.8 µM (inactive) | GI50 (M14): > 100 µM (inactive) | GI50 (M19-MEL): > 100 µM (inactive) | GI50 (MOLT-4): > 100 µM (inactive) | GI50 (Malme-3M): > 100 µM (inactive) | GI50 (NCI-H226): > 100 µM (inactive) | GI50 (NCI-H23): > 100 µM (inactive) | GI50 (NCI-H460): > 100 µM (inactive) | GI50 (NCI-H522): > 100 µM (inactive) | GI50 (OVCAR-3): > 100 µM (inactive) | GI50 (OVCAR-4): > 100 µM (inactive) | GI50 (OVCAR-5): > 100 µM (inactive) | GI50 (OVCAR-8): > 100 µM (inactive) | GI50 (RPMI-8226): > 100 µM (inactive) | GI50 (RXF 393): > 100 µM (inactive) | GI50 (SF-268): > 100 µM (inactive) | GI50 (SF-295): > 100 µM (inactive) | GI50 (SF-539): > 100 µM (inactive) | GI50 (SK-MEL-28): > 100 µM (inactive) | GI50 (SK-MEL-2): > 100 µM (inactive) | GI50 (SK-MEL-5): > 100 µM (inactive) | GI50 (SK-OV-3): > 100 µM (inactive) | GI50 (SN12C): > 100 µM (inactive) | GI50 (SNB-19): > 100 µM (inactive) | GI50 (SNB-75): > 100 µM (inactive) | GI50 (SR): > 100 µM (inactive) | GI50 (SW-620): > 100 µM (inactive) | GI50 (TK-10): > 100 µM (inactive) | GI50 (U-251): > 100 µM (inactive) | GI50 (UACC-257): > 100 µM (inactive) | GI50 (UACC-62): > 100 µM (inactive) | GI50 (UO-31): > 100 µM (inactive) | GI50 (XF498): > 100 µM (inactive)

CCCCCCCCCCCCCCCC(=O)Nc1ccn(C2OC(CO)C(O)C2O)c(=O)n1 (stereo unspecified)
GI50 (786-0): 4.01 µM (inactive) | GI50 (A498): 22.1 µM (inactive) | GI50 (A549): 2.62 µM (inactive) | GI50 (ACHN): 3.08 µM (inactive) | GI50 (BT-549): 33.7 µM (inactive) | GI50 (CAKI-1): 28.7 µM (inactive) | GI50 (CCRF-CEM): 0.0308 µM (active) | GI50 (COLO 205): 37.9 µM (inactive) | GI50 (DLD-1): > 54.7 µM (inactive) | GI50 (DMS-114): 4.89 µM (inactive) | GI50 (DMS-273): 5.66 µM (inactive) | GI50 (DU-145): 3.38 µM (inactive) | GI50 (EKVX): > 100 µM (inactive) | GI50 (HCC 2998): 25.1 µM (inactive) | GI50 (HCT-116): 1.21 µM (inactive) | GI50 (HCT-15): 17.7 µM | GI50 (HL-60): 2.77 µM (inactive) | GI50 (HOP-18): 21.4 µM (inactive) | GI50 (HOP-62): 0.887 µM (active) | GI50 (HOP-92): 16.6 µM (inactive) | GI50 (HT-29): 25.7 µM (inactive) | GI50 (Hs-578T): > 45.2 µM (inactive) | GI50 (IGROV-1): 35.6 µM (inactive) | GI50 (K562): 9.75 µM (inactive) | GI50 (KM-20L2): 40.3 µM (inactive) | GI50 (KM12): 29.4 µM (inactive) | GI50 (LOX IMVI): 5.25 µM (inactive) | GI50 (LXFL 529): 39.5 µM (inactive) | GI50 (M14): 3.21 µM (inactive) | GI50 (M19-MEL): 13.1 µM (inactive) | GI50 (MCF7): 0.94 µM (active) | GI50 (MDA-MB-231): > 62.8 µM (inactive) | GI50 (MDA-MB-435): 27.6 µM (inactive) | GI50 (MDA-N): 30.3 µM (inactive) | GI50 (MOLT-4): 0.131 µM (active) | GI50 (Malme-3M): 4.22 µM (inactive) | GI50 (NCI-H226): 30.5 µM (inactive) | GI50 (NCI-H23): 2.05 µM (inactive) | GI50 (NCI-H460): 0.78 µM (active) | GI50 (NCI-H522): 2.25 µM (inactive) | GI50 (NCI/ADR-RES): 7.23 µM (inactive) | GI50 (OVCAR-3): 34.2 µM (inactive) | GI50 (OVCAR-4): > 100 µM (inactive) | GI50 (OVCAR-5): 45.4 µM (inactive) | GI50 (OVCAR-8): 6.55 µM (inactive) | GI50 (PC-3): 3.78 µM (inactive) | GI50 (RPMI-8226): 42.2 µM (inactive) | GI50 (RXF 393): 24.6 µM (inactive) | GI50 (SF-268): 15.2 µM (inactive) | GI50 (SF-295): 51.1 µM (inactive) | GI50 (SF-539): 57.7 µM (inactive) | GI50 (SK-MEL-28): 41.9 µM (inactive) | GI50 (SK-MEL-2): > 100 µM (inactive) | GI50 (SK-MEL-5): 29.9 µM (inactive) | GI50 (SK-OV-3): 16.7 µM (inactive) | GI50 (SN12C): 31 µM (inactive) | GI50 (SNB-19): 15.2 µM (inactive) | GI50 (SNB-75): 30.5 µM (inactive) | GI50 (SNB-78): > 100 µM (inactive) | GI50 (SR): 0.6 µM (active) | GI50 (SW-620): > 90.4 µM (inactive) | GI50 (T47D): 30.1 µM (inactive) | GI50 (TK-10): > 100 µM (inactive) | GI50 (U-251): 12.4 µM (inactive) | GI50 (UACC-257): 78.3 µM (inactive) | GI50 (UACC-62): 24.2 µM (inactive) | GI50 (UO-31): 3.4 µM (inactive)

O=C(Nc1c(C(=O)NC2CCCCC2)[nH]c(=O)[nH]c1=O)c1ccc(Cl)cc1
GI50 (A549): > 100 µM (inactive) | GI50 (ACHN): > 100 µM (inactive) | GI50 (CAKI-1): > 100 µM (inactive) | GI50 (CCRF-CEM): > 100 µM (inactive) | GI50 (COLO 205): > 100 µM (inactive) | GI50 (DLD-1): > 100 µM (inactive) | GI50 (DMS-114): > 100 µM (inactive) | GI50 (EKVX): > 100 µM (inactive) | GI50 (HCT-116): > 100 µM (inactive) | GI50 (HCT-15): > 100 µM | GI50 (HL-60): > 100 µM (inactive) | GI50 (HOP-18): > 100 µM (inactive) | GI50 (HOP-62): > 100 µM (inactive) | GI50 (HOP-92): > 100 µM (inactive) | GI50 (HT-29): > 100 µM (inactive) | GI50 (IGROV-1): > 100 µM (inactive) | GI50 (K562): > 100 µM (inactive) | GI50 (KM12): 49.3 µM (inactive) | GI50 (LOX IMVI): > 100 µM (inactive) | GI50 (LXFL 529): > 100 µM (inactive) | GI50 (M14): > 100 µM (inactive) | GI50 (M19-MEL): > 100 µM (inactive) | GI50 (MOLT-4): > 100 µM (inactive) | GI50 (Malme-3M): > 100 µM (inactive) | GI50 (NCI-H226): > 100 µM (inactive) | GI50 (NCI-H460): > 100 µM (inactive) | GI50 (NCI-H522): 44.3 µM (inactive) | GI50 (OVCAR-3): > 100 µM (inactive) | GI50 (OVCAR-4): > 100 µM (inactive) | GI50 (OVCAR-5): > 100 µM (inactive) | GI50 (OVCAR-8): > 100 µM (inactive) | GI50 (RPMI-8226): > 100 µM (inactive) | GI50 (RXF 393): 79.6 µM (inactive) | GI50 (SF-268): > 100 µM (inactive) | GI50 (SF-295): > 100 µM (inactive) | GI50 (SF-539): > 100 µM (inactive) | GI50 (SK-MEL-28): > 100 µM (inactive) | GI50 (SK-MEL-5): > 100 µM (inactive) | GI50 (SK-OV-3): > 100 µM (inactive) | GI50 (SN12C): > 100 µM (inactive) | GI50 (SNB-19): < 0.01 µM (active) | GI50 (SNB-75): 22 µM (inactive) | GI50 (SR): > 100 µM (inactive) | GI50 (SW-620): > 100 µM (inactive) | GI50 (TK-10): > 100 µM (inactive) | GI50 (UACC-62): > 100 µM (inactive) | GI50 (UO-31): > 100 µM (inactive) | GI50 (XF498): > 100 µM (inactive)
